One data set has as its system RSV strain A2. Description: RSV HEp-2 EC50 (infectious cytopathic cell protection assay). Type of data set: cell-based, RSV strain A2; HEp-2 cells. The conditions noted are these: read-out: RSV Hep-2 EC50. The method, boiled down:
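HEp-2 cells (50,000/mL) infected with titered RSV stock, added onto compound in 3-fold serial dilutions; 4 days at 37 °C. Cell viability read by CellTiter-Glo luminescence; percent inhibition of virus-induced cytopathic effect derived from remaining viability against 0% and 100% inhibition controls.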
Background: Protection from cytopathic effect is a common read-out in antiviral testing.

In data set [1] the test system is Human hepatocarcinoma 7 (Huh7) cells. Description: Huh-7 CC50 (CellTiter Glo viability). Type of data set: cell-based. The conditions noted are these: 48 hours. An outline of the steps:
(§1)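 Huh7 cells in 10% FCS DMEM plated at 1-2×10^4 per well in triplicate with graded compound doses, 0.25% DMSO throughout. Viability after 48 hours by CellTiter Glo luminescence, normalized to no-compound and no-cell controls; CC50 from curve fitting.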
In general terms: ATP-based viability assays read luminescence as a measure of living cells.

A further data set deals with uninfected HEp-2 cells. Description: HEp-2 CC50 (cytotoxicity in uninfected HEp-2 cells). Particulars: 4 days, CellTiter Glo. The data set is classed as cell-based. The method, then: (§2) Instead, an uninfected cell mixture at the same density is added at 20 uL/well to plates containing prediluted compounds, also at 100 nL/sample. Assay plates are then incubated for 4 days followed by a cell viability test using the same CellTiter Glo reagent addition and measurement of luminescent readouts. Untreated cell and cells treated at 2 μM puromycin (Sigma, St. Louis, MO) serve as 100% and 0% cell viability control, respectively.

In data set [2] the test system is Dengue serotype 2 New Guinea C (NGC) strain. The data set is described as follows: DENV-2 Huh-7 EC50 (qPCR of viral RNA in infected Huh7 cells). Type of data set: cell-based. The conditions noted are these: MOI=0.1, 48 hours. An outline of the steps:
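Huh7 cells were infected 2 h at 37 °C with DENV-2 NGC at MOI 0.1, then plated with graded compound doses (0.25% DMSO) in triplicate for 48 h. Viral RNA was quantified by duplex TaqMan qPCR against GAPDH. EC50 was normalized to positive and no-compound controls.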
On the technique in general: Quantitative PCR measures a nucleic acid by following its amplification.

The subject of data set [3] is Dengue 2, New Guinea strain (NGC). Description: DENV-2 moDC EC50 (qPCR of viral RNA in infected moDCs). Type of data set: cell-based, New Guinea strain (NGC); human moDCs. Particulars: human moDCs infected with Dengue 2 NGC, MOI=0.1, 48 hours. The method, then: Example 82. DENV-2 moDC EC50
Human monocyte-derived dendritic cells (moDCs) were derived from CD14+ monocytes (AllCells) cultured in Human Mo-DC Differentiation medium containing GM-CSF and IL-4 (Miltenyi Biotec). On day 7, moDCs were harvested by mechanical disruption, washed and suspended in serum-free RPMI. moDCs were infected with Vero-derived Dengue 2, New Guinea strain (NGC) at a MOI=0.1 for two hours in serum-free RPMI with gentle agitation at 37° C. Cells were washed and resuspended in 10% serum-containing RPMI (Gibco, supplemented with sodium pyruvate, NEAA, Penicillin-Streptomycin). […] were plated in triplicate in 96-well plates with compounds dispensed at graded doses (Hewlett-Packard D300 Digital Dispenser). All wells were normalized to 0.25% DMSO. At 48 hours, cells were washed with 1×PBS and all supernatants removed. Total RNA was extracted using RNEasy 96 plates (Qiagen) and used to generate first-strand cDNA using XLT cDNA 5× Supermix (QuantaBio). cDNA was used as a template in a Taqman qPCR duplex reaction specific to DENV2 viral and GAPDH gene expression. EC50 values were determined using Prism Graphpad software, with normalization to a positive control and no compound negative control wells.

The nature of data set [4]: moDC CC50 (CellTiter Glo viability). Particulars: human, uninfected moDCs. The data set is classed as cell-based, Human. The method, then: Human monocyte-derived dendritic cells (moDCs) were derived from CD14+ monocytes (AllCells) cultured in Human Mo-DC Differentiation medium containing GM-CSF and IL-4 (Miltenyi Biotec). On day 7, moDCs were harvested by mechanical disruption, washed and cultured in triplicate at […] cells/well in 96-well plates with compounds dispensed at graded doses (Hewlett-Packard D300 Digital Dispenser). All wells were normalized to 0.25% DMSO. After 48 hours, CellTiter Glo (Promega) was added and incubated for 10 minutes at room temp before reading on a luminometer. % viability curves were calculated against no compound and no cell control wells. CC50 values were determined using Prism Graphpad software.

Data set [5] can be described thus: Huh-7 CC50 (CellTiter Glo viability). The conditions noted are these: human, Huh7 hepatocarcinoma cells. The data set is classed as cell-based, Human. An outline of the steps:
as §1

Data set [6] in a line: HEp-2 CC50 (cytotoxicity in uninfected HEp-2 cells). Particulars: human, CellTiter Glo. The data set is classed as cell-based. How it is done:
as §2

[7] abbreviates: HEp-2 cells infected with RSV A2, 4 days, Cell TiterGlo.
Where [8] appears, read: Huh7 cells infected with Dengue serotype 2 NGC.
The mark [9] stands for this setting: human respiratory syncytial virus, HEp-2, 96 h.
Where [10] appears, read: Dengue virus, DENV2, Huh-7, Huh7 cells infected with Dengue serotype 2 NGC.

The structures appear in SMILES notation. Where two headings read alike, the source gives them in different places.

Usually EC50 stands for the concentration giving half of the maximal effect. In general, CC50 refers to the concentration giving 50% cytotoxicity. High values mean lower toxicity to the cells, low ones greater toxicity to the cells. With `CCOC(=O)[C@H](C)NP(=O)(OC[C@@]1(CF)O[C@@H](c2ccc3c(N)ncnn23)[C@H](O)[C@@H]1O)Oc1ccc(C(C)(C)C)cc1` (single isomer, unassigned) [Example 48], the EC50 with RSV strain A2 (setting [7]) is 215 nM; in data set [2] (setting [8]) it was 390 nM. The CC50 in data set [1] was 15.4 µM; in the data set on uninfected HEp-2 cells, 30.2 µM.
In the same order, the values of `CCOC(=O)[C@H](C)NP(=O)(OC[C@@]1(CF)O[C@@H](c2ccc3c(N)ncnn23)[C@H](O)[C@@H]1O)Oc1ccc(C(C)(C)C)cc1` (single isomer, unassigned) [Example 49] are 225 nM, 334 nM, more than 25 µM and more than 100 µM.
In the case of `CC(=O)O[C@H]1[C@H](c2ccc3c(N)ncnn23)O[C@](CF)(COP(=O)(N[C@@H](C)C(=O)OC2CCCCC2)Oc2ccccc2)[C@H]1OC(C)=O` (stereo partly drawn) [Example 15, (2R,3S,4S,5S)-5-(4-aminopyrrolo[2,1-f][1,2,4]triazin-7-yl)-2-((((((S)-1-(cyclohexyloxy)-1-oxopropan-2-yl)amino)(Phenoxy)phosphoryl)oxy)methyl)-2-(fluoromethyl)tetrahydrofuran-3,4-diyl diacetate], the concentration for a half-maximal effect (EC50) in the data set with RSV strain A2 (setting [7]) came out at 1460 nM; in data set [2] (setting [8]), 1630 nM. In addition, the CC50 in data set [1] was more than 25 µM; in the data set with uninfected HEp-2 cells, more than 50 µM.
In the case of `CCOC(=O)[C@H](C)NP(=O)(OC[C@@]1(CF)O[C@@H](c2ccc3c(N)ncnn23)[C@H](OC(=O)CC)[C@@H]1OC(=O)CC)Oc1ccccc1` (stereo partly drawn) [Example 25, (2R,3S,4S,5S)-5-(4-aminopyrrolo[2,1-f][1,2,4]triazin-7-yl)-2-((((((S)-1-ethoxy-1-oxopropan-2-yl)amino)(Phenoxy)phosphoryl)oxy)methyl)-2-(fluoromethyl) tetrahydrofuran-3,4-diyl dipropionate], the half-maximal effective concentration (EC50) in the data set on RSV strain A2 (setting [7]) was determined as 919 nM; in data set [3], 213 nM; in data set [2] (setting [8]), 291 nM. The CC50 in data set [1] was more than 25 µM; in the data set with uninfected HEp-2 cells it was 70 µM.
As to `CCC(=O)O[C@H]1[C@H](c2ccc3c(N)ncnn23)O[C@](CF)(COP(=O)(N[C@@H](C)C(=O)OC)Oc2ccccc2)[C@H]1OC(=O)CC` (stereo partly drawn) [Example 33, (2R,3S,4S,5S)-5-(4-aminopyrrolo[2,1-f][1,2,4]triazin-7-yl)-2-(fluoromethyl)-2-((((((S)-1-methoxy-1-oxopropan-2-yl)amino)(phenoxy)phosphoryl)oxy)methyl)tetrahydrofuran-3,4-diyl dipropionate], the EC50 in the data set with RSV strain A2 (setting [7]) is 1220 nM; in data set [2] (setting [8]), 811 nM. The results for the CC50 (in data set [1]; in the data set with uninfected HEp-2 cells) were more than 25 µM and 43.3 µM, respectively.
Take `CCCCOCCOC(=O)[C@H](C)NP(=O)(OC[C@@]1(CF)O[C@@H](c2ccc3c(N)ncnn23)[C@H](O)[C@@H]1O)Oc1ccccc1` (stereo partly drawn) [Example 42, 2-butoxyethyl ((((2R,3S,4R,5S)-5-(4-aminopyrrolo[2,1-f][1,2,4]triazin-7-yl)-2-(fluoromethyl)-3,4-dihydroxytetrahydrofuran-2-yl)methoxy)(phenoxy)phosphoryl)-L-alaninate]: the CC50 at 48 h in data set [4] is 5.33 µM; in data set [5], 21.1 µM. The EC50 came out at 860 nM in the data set with RSV strain A2 (setting [9]), 258 nM in data set [3] (Dengue virus) and 667 nM in data set [2] (setting [10]). For the same compound, in data set [6], the CC50 at 4 days is more than 100 µM.
In the case of `COC(C)(C)COC(=O)[C@H](C)NP(=O)(OC[C@@]1(CF)O[C@@H](c2ccc3c(N)ncnn23)[C@H](O)[C@@H]1O)Oc1ccccc1` (stereo partly drawn) [Example 43, 2-methoxy-2-methylpropyl ((((2R,3S,4R,5S)-5-(4-aminopyrrolo[2,1-f][1,2,4]triazin-7-yl)-2-(fluoromethyl)-3,4-dihydroxytetrahydrofuran-2-yl)methoxy)(phenoxy)phosphoryl)-L-alaninate], the values for the CC50 at 48 h in data set [4] and in data set [5] were 17.9 µM and more than 25 µM, respectively. In addition, the EC50 stood at 2160 nM in the data set on RSV strain A2 (setting [9]), 626 nM in data set [3] (Dengue virus) and 1200 nM in data set [2] (setting [10]). In data set [6], this compound returned a CC50 at 4 days of more than 100 µM.
Consider `CCOCCOCCOC(=O)[C@H](C)NP(=O)(OC[C@@]1(CF)O[C@@H](c2ccc3c(N)ncnn23)[C@H](O)[C@@H]1O)Oc1ccccc1` (stereo partly drawn) [Example 45, 2-(2-ethoxyethoxy)ethyl ((((2R,3S,4R,5S)-5-(4-aminopyrrolo[2,1-f][1,2,4]triazin-7-yl)-2-(fluoromethyl)-3,4-dihydroxytetrahydrofuran-2-yl)methoxy)(phenoxy)phosphoryl)-L-alaninate], for which the CC50 at 48 h in data set [4] and in data set [5] was more than 25 µM each time. The EC50 in the data set with RSV strain A2 (setting [9]) is 21800 nM; in data set [3] (Dengue virus), more than 5000 nM; in data set [2] (setting [10]), 4580 nM. Besides, the half-maximal cytotoxic concentration (CC50) at 4 days in data set [6] is more than 100 µM.
As for `CCCCCOC(=O)[C@H](C)NP(=O)(OC[C@@]1(CF)O[C@@H](c2ccc3c(N)ncnn23)[C@H](O)[C@@H]1O)Oc1ccccc1` (stereo partly drawn) [Example 59, pentyl ((((2R,3S,4R,5S)-5-(4-aminopyrrolo[2,1-f][1,2,4]triazin-7-yl)-2-(fluoromethyl)-3,4-dihydroxytetrahydrofuran-2-yl)methoxy)(phenoxy)phosphoryl)-L-alaninate], the CC50 at 48 h in data set [4] came out at 7.04 µM; in data set [5] it was 11.3 µM. Also, the figures for the EC50 (in the data set on RSV strain A2 (setting [9]); in data set [3] (Dengue virus); in data set [2] (setting [10])) were 298 nM, 62 nM and 153 nM, respectively. The CC50 at 4 days in data set [6] was found to be 45.1 µM.
Turning to `CCCC(CCC)COC(=O)[C@H](C)NP(=O)(OC[C@@]1(CF)O[C@@H](c2ccc3c(N)ncnn23)[C@H](O)[C@@H]1O)Oc1ccccc1` (stereo partly drawn) [Example 68, 2-propylpentyl ((((2R,3S,4R,5S)-5-(4-aminopyrrolo[2,1-f][1,2,4]triazin-7-yl)-2-(fluoromethyl)-3,4-dihydroxytetrahydrofuran-2-yl)methoxy)(phenoxy)phosphoryl)-L-alaninate], the 50% cytotoxic concentration (CC50) at 48 h in data set [4] is 6.26 µM; in data set [5] it was more than 25 µM. Also, the EC50 stood at 141 nM in the data set with RSV strain A2 (setting [9]), 169 nM in data set [3] (Dengue virus) and 278 nM in data set [2] (setting [10]). In data set [6], the CC50 at 4 days was more than 100 µM.
`CC(C)COC(=O)[C@H](C)NP(=O)(OC[C@@]1(CF)O[C@@H](c2ccc3c(N)ncnn23)[C@H](O)[C@@H]1O)Oc1ccccc1` (stereo partly drawn) [Example 70, isobutyl ((((2R,3S,4R,5S)-5-(4-aminopyrrolo[2,1-f][1,2,4]triazin-7-yl)-2-(fluoromethyl)-3,4-dihydroxytetrahydrofuran-2-yl)methoxy)(phenoxy)phosphoryl)-L-alaninate]: the CC50 at 48 h in data set [4] was determined as 3.57 µM; in data set [5] it was 10.6 µM. In addition, the EC50 with RSV strain A2 (setting [9]) is 212 nM; in data set [3] (Dengue virus), 190 nM; in data set [2] (setting [10]), 245 nM. The compound also registered a CC50 at 4 days in data set [6] of 69.4 µM.
Consider `C[C@H](NP(=O)(OC[C@@]1(CF)O[C@@H](c2ccc3c(N)ncnn23)[C@H](O)[C@@H]1O)Oc1ccccc1)C(=O)OC1CCC1` (stereo partly drawn) [Example 71, cyclobutyl ((((2R,3S,4R,5S)-5-(4-aminopyrrolo[2,1-f][1,2,4]triazin-7-yl)-2-(fluoromethyl)-3,4-dihydroxytetrahydrofuran-2-yl)methoxy)(phenoxy)phosphoryl)-L-alaninate], for which the CC50 at 48 h in data set [4] was 8.8 µM; in data set [5], 13 µM. The EC50 in the data set on RSV strain A2 (setting [9]) came to 290 nM; in data set [3] (Dengue virus), 143 nM; in data set [2] (setting [10]), 298 nM. The compound also registered a CC50 at 4 days in data set [6] of more than 100 µM.

Source of the values: patent US12030903B2, “Antiviral compounds” (Gilead Sciences, Inc., priority 2020, dated 2024).
